The results in this text go back to ChEMBL document CHEMBL1139797, “Conversion of the LXR-agonist TO-901317--from inverse to normal modulation of gamma-secretase by addition of a carboxylic acid and a lipophilic anchor” (Bioorg Med Chem Lett, 2007).

The EC50 is the midpoint of the concentration-response curve. One may read the IC50 as the point on the concentration scale where inhibition reaches its midpoint.

Format in all cases: cell-based
Series [1] concerns the target Gamma-secretase. As to the kind of experiment: Effect on gamma-secretase activity in human H4 cells expressing APP695 assessed as increase in Amyloid beta38 formation by LPECL assay.
The subject of series [2] is H4. Briefly: Cytotoxicity against human H4 cells assessed as reduction of viability.
Series [3] has as its target Gamma-secretase. Briefly: Effect on gamma-secretase activity in human H4 cells expressing APP695 assessed as reduction of Amyloid beta-38 formation by LPECL assay.
In series [4] the target is Gamma-secretase. Briefly: Effect on gamma-secretase activity in human H4 cells expressing APP695 assessed as increase in Amyloid beta-42 formation LPECL assay.
Series [5] concerns the target Gamma-secretase. As to the kind of experiment: (§1) Effect on gamma-secretase activity in human H4 cells expressing APP695 assessed as reduction of Amyloid beta-40 formation LPECL assay.
Series [6] has as its target Gamma-secretase. Briefly: Effect on gamma-secretase activity in human H4 cells expressing APP695 assessed as reduction of Amyloid beta-42 formation LPECL assay.
Series [7] has as its target Gamma-secretase (Homo sapiens) (UniProt Q96BI3+Q9NZ42+Q8WW43+P49768+Q92542+P49810). The description is as §1.

Calls of active or inactive are those of the source. The rule behind the calls is not given here. Some results are limits rather than exact numbers.

Take `CC(C)c1cc(C(C)C)c(S(=O)(=O)n2c3ccc(Cl)cc3c3ccc(C(C)C(=O)O)cc32)c(C(C)C)c1` (stereo not given): the EC50 in series [1] amounted to 9.3 µM. Besides, the Activity in series [2] is 40 µM.
For the molecule `CCCCCCCCCCn1c2ccccc2c2ccc(OCC(=O)O)cc21`, in series [2], the Activity was above 40 µM.
Regarding `CC(C)c1cc(C(C)C)c(S(=O)(=O)n2c3ccccc3c3ccc(OCC(=O)O)cc32)c(C(C)C)c1`, the EC50 in series [1] was found to be 7.8 µM. In series [2], the Activity was 20 µM.
Regarding `O=S(=O)(c1ccccc1)N(CC(F)(F)F)c1ccc(C(O)(C(F)(F)F)C(F)(F)F)cc1` [T091317], the IC50 in series [3] was 4.5 µM; in series [5], above 40 µM. For the same molecule, in series [4], the EC50 came to 3.6 µM.
Take `CC(C(=O)OCc1ccccc1)c1ccc2c3cc(Cl)ccc3n(S(=O)(=O)c3cc(C(F)(F)F)cc(C(F)(F)F)c3)c2c1` (stereo not given): the IC50 in series [3] was above 20 µM; in series [5], above 40 µM. Also, the Activity in series [2] is above 40 µM. The EC50 in series [4] was above 20 µM.
`CCCCCCCCN(c1ccc(OCC(=O)OC(C)(C)C)cc1)S(=O)(=O)c1cc(C(F)(F)F)cc(C(F)(F)F)c1`: the IC50 is 13.3 µM in series [3] and above 40 µM in series [5]. Besides, the Activity in series [2] is above 40 µM. Also, the EC50 in series [4] came out at 6.2 µM.
`CCCCCCCCCCn1c2ccc(Cl)cc2c2ccc(C(C)C(=O)O)cc21` (stereo not given): the EC50 in series [1] was found to be 5.8 µM. In addition, the Activity in series [2] worked out at 40 µM.
As to `CCCCCCCCN(c1ccc(OCC(=O)O)cc1)S(=O)(=O)c1cc(C(F)(F)F)cc(C(F)(F)F)c1`, the EC50 in series [1] worked out at 23.7 µM. In addition, the Activity in series [2] was found to be 40 µM. Further, the IC50 in series [5] is above 40 µM; in series [6] it was 19.6 µM.
For `Cc1ccc(S(=O)(=O)n2c3ccc(Cl)cc3c3ccc(C(C)C(=O)OCc4ccccc4)cc32)cc1` (stereo not given), the IC50 in series [3] came out at 20 µM. For the same molecule, the Activity in series [2] is above 40 µM. Further, in series [4], the EC50 is 20 µM. In addition, the result in series [7] was inactive.
Regarding `CC(C)(C)OC(=O)COc1ccc(NS(=O)(=O)c2cc(C(F)(F)F)cc(C(F)(F)F)c2)cc1`, the IC50 in series [3] and in series [5] was above 40 µM in each case. Moreover, in series [2], the Activity is above 40 µM. Further, the EC50 in series [4] was 10.6 µM.
